Test results reported in ChEMBL document CHEMBL1134131, “Discovery of 2,3-diaryl-1,3-thiazolidin-4-ones as potent anti-HIV-1 agents” (Bioorg Med Chem Lett, 2001).

System: MT4
Assay: Compound was evaluated for the inhibition of replication of HIV-1 IIIB or HIV-2 (ROD) in MT-4 cells by using [3H]dGTP radiolabeled substrate
Assay type: functional, cell-based
Conditions: Homo sapiens; call rule not given here

Work on `Cc1cccc(N2C(=O)CSC2c2c(F)cccc2F)n1` (stereo not drawn) yielded an IC50 of 2.9 µM.

System: MT4
Assay: Concentration required to reduce HIV-1-induced cytopathic effect by 50% in MT-4 cells against HIV-1 IIIB
Assay type: functional, cell-based
Conditions: Homo sapiens

For `O=C1CSC(c2c(F)cccc2F)N1c1ccccc1` (stereo not drawn), the EC50 was 2.3 µM.

System: MT4
Assay: Cytotoxicity to reduce MT-4 cell viability by 50%
Assay type: functional
Conditions: Homo sapiens

`O=C1CSC(c2c(F)cccc2F)N1c1cccnc1` (stereo not drawn) and `O=C1CSC(c2c(F)cccc2F)N1c1ccccn1` (stereo not drawn) cannot be ordered by CC50: greater than 427 µM for the first, greater than 427 µM for the second.

Compared with `O=C1CSC(c2c(Cl)cccc2Cl)N1c1ccccn1` (stereo not drawn), `Cc1cccc(N2C(=O)CSC2c2c(Cl)cccc2Cl)n1` (stereo not drawn) is 7.4-fold higher in CC50: 38.5 µM for the first, 285 µM for the second.

Going from `Cc1cccnc1N1C(=O)CSC1c1c(F)cccc1F` (stereo not drawn) to `Cc1ccnc(N2C(=O)CSC2c2c(F)cccc2F)c1` (stereo not drawn), the CC50 falls from greater than 319 µM to 242 µM.

Going from `Clc1cccc(Cl)c1C1SCc2nc3ccccc3n21` (stereo not drawn) to `Fc1cccc(F)c1C1SCc2nc3ccccc3n21` (stereo not drawn) [THIAZOLOBENZIMIDAZOLE], the CC50 rises from 9.43 µM to 19.2 µM (2-fold).

Going from `O=C1CSC(c2c(Cl)cccc2Cl)N1c1cccnc1` (stereo not drawn) to `O=C1CSC(c2c(Cl)cccc2Cl)N1c1ccccc1` (stereo not drawn), the CC50 rises from 23.4 µM to 38.1 µM (1.6-fold).

Going from `Cc1ccc(N2C(=O)CSC2c2c(F)cccc2F)nc1` (stereo not drawn) to `Cc1cccc(N2C(=O)CSC2c2c(F)cccc2F)n1` (stereo not drawn), the CC50 falls from 202 µM to 126 µM (1.6-fold).

Going from `Cc1cccnc1N1C(=O)CSC1c1c(Cl)cccc1Cl` (stereo not drawn) to `Cc1ccnc(N2C(=O)CSC2c2c(Cl)cccc2Cl)c1` (stereo not drawn), the CC50 rises from 42.6 µM to greater than 368 µM.

System: not listed separately
Assay: Selectivity index ([…] ratio)of the compound
Assay type: functional
Conditions: not given

For `Cc1ccnc(N2C(=O)CSC2c2c(F)cccc2F)c1` (stereo not drawn), the Ratio was 976.

System: MT4
Assay: Evaluated for the inhibition of replication of HIV-1 IIIB or HIV-2 (ROD) in MT-4 cells by using [3H]-dGTP as the radiolabeled substrate
Assay type: functional, cell-based
Conditions: Homo sapiens

Work on `Fc1cccc(F)c1C1SCc2nc3ccccc3n21` (stereo not drawn) [THIAZOLOBENZIMIDAZOLE] yielded an IC50 of 14.6 µM.

System: MT4
Assay: Evaluated for the inhibition of replication of HIV-1 IIIB or HIV-2 (ROD) in MT-4 cells by using [3H]dGTP radiolabeled substrate
Assay type: functional, cell-based
Conditions: Homo sapiens

`Cc1cccc(N2C(=O)CSC2c2c(Cl)cccc2Cl)n1` (stereo not drawn) and `Cc1ccnc(N2C(=O)CSC2c2c(F)cccc2F)c1` (stereo not drawn) are within 1.5-fold of each other in IC50: 2.24 µM for the first, 2.84 µM for the second.

System: MT4
Assay: Anti-HIV activity to reduce […] cytopathic effect by 50% in MT-4 cells against HIV-1 IIIB; NA=not active
Assay type: functional, cell-based, Homo sapiens
Conditions: not given

With `Cc1cccnc1N1C(=O)CSC1c1c(Cl)cccc1Cl` (stereo not drawn) the EC50 was “Not Active”.

System: MT4
Assay: Anti-HIV activity to reduce […] cytopathic effect by 50% in MT-4 cells against HIV-1 IIIB; NA= not active
Assay type: functional, cell-based, Homo sapiens
Conditions: not given

With `O=C1CSC(c2c(Cl)cccc2Cl)N1c1cccnc1` (stereo not drawn) the EC50 was “Not Active”.

System: MT4
Assay: Anti-HIV activity to reduce […] cytopathic effect by 50% in MT-4 cells against HIV-1 IIIB
Assay type: functional, cell-based
Conditions: Homo sapiens

First: O=C1CSC(c2c(F)cccc2F)N1c1cccnc1 (stereo not drawn)
Second: O=C1CSC(c2c(F)cccc2F)N1c1ccccn1 (stereo not drawn)
The EC50 of the first is 110-fold higher: 95.1 µM for the first, 0.855 µM for the second.

Compared with `O=C1CSC(c2c(Cl)cccc2Cl)N1c1ccccn1` (stereo not drawn), `Cc1cccc(N2C(=O)CSC2c2c(Cl)cccc2Cl)n1` (stereo not drawn) is 4-fold lower in EC50: 0.178 µM for the first, 0.044 µM for the second.

Compared with `Cc1cccnc1N1C(=O)CSC1c1c(F)cccc1F` (stereo not drawn), `Cc1ccnc(N2C(=O)CSC2c2c(F)cccc2F)c1` (stereo not drawn) is 220-fold lower in EC50: 53.5 µM for the first, 0.248 µM for the second.

Compared with `Clc1cccc(Cl)c1C1SCc2nc3ccccc3n21` (stereo not drawn), `Fc1cccc(F)c1C1SCc2nc3ccccc3n21` (stereo not drawn) [THIAZOLOBENZIMIDAZOLE] is 1.7-fold lower in EC50: 0.589 µM for the first, 0.352 µM for the second. The second is the more potent here.

First: O=C1CSC(c2c(Cl)cccc2Cl)N1c1cccnc1 (stereo not drawn)
Second: O=C1CSC(c2c(Cl)cccc2Cl)N1c1ccccc1 (stereo not drawn)
The EC50 of the first is higher: greater than 23 µM for the first, 0.401 µM for the second. The second is the more potent here.

Compared with `Cc1ccc(N2C(=O)CSC2c2c(F)cccc2F)nc1` (stereo not drawn), `Cc1cccc(N2C(=O)CSC2c2c(F)cccc2F)n1` (stereo not drawn) is 63-fold lower in EC50: 5.13 µM for the first, 0.082 µM for the second.

`Cc1ccnc(N2C(=O)CSC2c2c(Cl)cccc2Cl)c1` (stereo not drawn) showed an EC50 of 0.147 µM.

System: MT4
Assay: Evaluated for cytotoxicity and the concentration required to reduce MT-4 cell viability by 50% was reported
Assay type: functional
Conditions: Homo sapiens

Compound `O=C1CSC(c2c(F)cccc2F)N1c1ccccc1` (stereo not drawn) has a CC50 greater than 429 µM.

System: MT4
Assay: Concentration required to reduce HIV-1-induced cytopathic effect by 50% in MT-4 cells against HIV-2 ROD
Assay type: functional, cell-based
Conditions: Homo sapiens

With `O=C1CSC(c2c(F)cccc2F)N1c1ccccc1` (stereo not drawn) the EC50 was greater than 429 µM.

System: MT4
Assay: Anti-HIV activity to reduce HIV-2-induced cytopathic effect by 50% in MT-4 cells against HIV-2 ROD
Assay type: functional, cell-based
Conditions: Homo sapiens

`O=C1CSC(c2c(F)cccc2F)N1c1cccnc1` (stereo not drawn) and `O=C1CSC(c2c(F)cccc2F)N1c1ccccn1` (stereo not drawn) cannot be ordered by EC50: greater than 427 µM for the first, greater than 427 µM for the second.

`O=C1CSC(c2c(Cl)cccc2Cl)N1c1ccccn1` (stereo not drawn) and `Cc1cccc(N2C(=O)CSC2c2c(Cl)cccc2Cl)n1` (stereo not drawn) cannot be ordered by EC50: greater than 38.5 µM for the first, 285 µM for the second.

`Cc1cccnc1N1C(=O)CSC1c1c(F)cccc1F` (stereo not drawn) and `Cc1ccnc(N2C(=O)CSC2c2c(F)cccc2F)c1` (stereo not drawn) cannot be ordered by EC50: greater than 270 µM for the first, greater than 242 µM for the second.

`O=C1CSC(c2c(Cl)cccc2Cl)N1c1ccccc1` (stereo not drawn) and `Cc1cccnc1N1C(=O)CSC1c1c(Cl)cccc1Cl` (stereo not drawn) cannot be ordered by EC50: greater than 39 µM for the first, greater than 31.5 µM for the second.

`Cc1ccc(N2C(=O)CSC2c2c(F)cccc2F)nc1` (stereo not drawn) and `Cc1cccc(N2C(=O)CSC2c2c(F)cccc2F)n1` (stereo not drawn) cannot be ordered by EC50: greater than 171 µM for the first, greater than 126 µM for the second.

With `Cc1ccnc(N2C(=O)CSC2c2c(Cl)cccc2Cl)c1` (stereo not drawn) the EC50 was greater than 368 µM.
